Earlier results on one compound are cited in patent US20220280449A1, “CURCUMINOID COMPOSITIONS” (priority 2018, published 2022).

Molecules are shown by their SMILES.

In the series the test system is Caco-2 cells.

Turning to `COc1cc(/C=C/C(=O)CC(=O)/C=C/c2ccc(O)c(OC)c2)ccc1O` [curcumin], the “predicted absorption in humans” value (from correlation of Caco-2 Papp with human absorption) is given as 0-20%. For the same compound, the “apparent permeability coefficient (Papp value)” value (in vitro human intestinal cell model (Caco-2)) is 0.1 ×10⁻⁶ cm/s.
